Here are results for one molecule from patent US20080038728A1, “Quadruple Transformed Cell Line Useful for the Identification of Transport Inhibitors” (priority 2004, published 2008).

Series [1] has as its target T1, OATP1B1 (Homo sapiens, UniProt Q9Y6L6).
T1 sequence (Q9Y6L6 1-691): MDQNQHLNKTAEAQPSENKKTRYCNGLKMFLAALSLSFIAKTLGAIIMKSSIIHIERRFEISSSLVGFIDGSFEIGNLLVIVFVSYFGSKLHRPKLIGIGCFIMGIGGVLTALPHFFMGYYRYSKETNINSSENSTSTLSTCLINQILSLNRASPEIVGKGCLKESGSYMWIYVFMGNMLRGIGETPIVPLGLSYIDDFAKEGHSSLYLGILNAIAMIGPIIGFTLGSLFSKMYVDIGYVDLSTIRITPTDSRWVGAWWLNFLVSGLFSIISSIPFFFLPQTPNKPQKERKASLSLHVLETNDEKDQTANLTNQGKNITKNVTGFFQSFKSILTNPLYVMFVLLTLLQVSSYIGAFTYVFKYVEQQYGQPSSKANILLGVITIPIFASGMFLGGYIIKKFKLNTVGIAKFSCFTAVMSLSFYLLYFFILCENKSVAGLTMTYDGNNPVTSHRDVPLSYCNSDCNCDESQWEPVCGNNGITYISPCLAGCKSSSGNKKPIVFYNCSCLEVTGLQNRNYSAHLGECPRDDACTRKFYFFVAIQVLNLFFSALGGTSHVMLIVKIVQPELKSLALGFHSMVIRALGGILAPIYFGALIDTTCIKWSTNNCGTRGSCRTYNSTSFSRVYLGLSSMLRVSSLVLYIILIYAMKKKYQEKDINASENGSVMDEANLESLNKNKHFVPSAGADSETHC
The settings on record: BSP uptake, background section; cited from earlier work.

Series [2] has as its target T2, OATP1B3 (Homo sapiens, UniProt Q9NPD5).
T2 sequence (Q9NPD5 1-702): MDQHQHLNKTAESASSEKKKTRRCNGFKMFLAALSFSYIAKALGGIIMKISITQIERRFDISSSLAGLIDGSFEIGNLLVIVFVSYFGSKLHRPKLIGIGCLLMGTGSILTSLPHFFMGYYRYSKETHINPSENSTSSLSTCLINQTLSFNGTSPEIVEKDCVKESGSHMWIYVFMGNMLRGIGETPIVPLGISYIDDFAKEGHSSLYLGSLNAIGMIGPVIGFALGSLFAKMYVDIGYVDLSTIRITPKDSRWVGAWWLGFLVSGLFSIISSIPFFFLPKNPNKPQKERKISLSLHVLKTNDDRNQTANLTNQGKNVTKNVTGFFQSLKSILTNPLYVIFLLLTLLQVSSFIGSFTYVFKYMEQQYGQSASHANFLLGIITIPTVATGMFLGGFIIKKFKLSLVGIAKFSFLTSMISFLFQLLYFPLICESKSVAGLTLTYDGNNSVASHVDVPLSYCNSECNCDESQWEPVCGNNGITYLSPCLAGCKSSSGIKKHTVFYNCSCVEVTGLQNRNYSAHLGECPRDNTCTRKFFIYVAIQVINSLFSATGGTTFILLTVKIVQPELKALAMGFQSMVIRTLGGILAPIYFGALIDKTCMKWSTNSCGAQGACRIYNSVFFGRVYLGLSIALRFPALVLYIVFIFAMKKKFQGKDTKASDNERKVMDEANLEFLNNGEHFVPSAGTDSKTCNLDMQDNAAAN
The following applies: BSP uptake, background section; cited from earlier work.

The target in series [3] is T1, OATP1B1. The following applies: cRNA-injected Xenopus laevis oocytes; cited from earlier work.
Series [4] deals with T2, OATP1B3. Nature of the series: Uptake (intracellular accumulation) kinetics in ABCC2/OATP1B3 double-transfected MDCKII cells. Type of series: in vitro ADME. Set-up: expressed in transfected cells; host or cells: MDCKII (canine kidney), co-expressing ABCC2. The procedure:
(a) MDCKII cells were grown on ThinCerts (24-mm diameter, pore size 0.4 μm, pore density 1×10^8 per cm^2) and induced with butyrate as mentioned above. The cells were washed in prewarmed (37° C.) transport buffer (142 mM NaCl, 5 mM KCl, 1 mM KH2PO4, 1.2 mM MgSO4, 1.5 mM CaCl2, 5 mM glucose, and 12.5 mM HEPES, pH 7.3). The ^3H-labeled substrate was dissolved in transport buffer and added either to the apical or to the basolateral compartment at the concentration indicated. After incubation at 37° C., the radioactivity in the opposite compartment was measured by sampling aliquots from the apical or basolateral compartment. Cells were washed 2 times with ice-cold transport buffer containing 0.5% bovine serum albumin and 3 times in ice-cold transport buffer. Intracellular accumulation of radioactivity was calculated by lyzing the cells with 0.2% sodium dodecyl sulfate (SDS) and measuring the radioactivity in the lysate.

The target in a further series is ABCC2 (Homo sapiens, UniProt Q92887). Also noted: expressed in transfected cells; host or cells: MDCKII-ABCC2 single-transfected cells (membrane vesicles). The settings on record: BSP: Cui et al., 2001; CCK-8: Letschert et al., 2005; cited from earlier work.
Chain of ABCC2 (Q92887 whole entry): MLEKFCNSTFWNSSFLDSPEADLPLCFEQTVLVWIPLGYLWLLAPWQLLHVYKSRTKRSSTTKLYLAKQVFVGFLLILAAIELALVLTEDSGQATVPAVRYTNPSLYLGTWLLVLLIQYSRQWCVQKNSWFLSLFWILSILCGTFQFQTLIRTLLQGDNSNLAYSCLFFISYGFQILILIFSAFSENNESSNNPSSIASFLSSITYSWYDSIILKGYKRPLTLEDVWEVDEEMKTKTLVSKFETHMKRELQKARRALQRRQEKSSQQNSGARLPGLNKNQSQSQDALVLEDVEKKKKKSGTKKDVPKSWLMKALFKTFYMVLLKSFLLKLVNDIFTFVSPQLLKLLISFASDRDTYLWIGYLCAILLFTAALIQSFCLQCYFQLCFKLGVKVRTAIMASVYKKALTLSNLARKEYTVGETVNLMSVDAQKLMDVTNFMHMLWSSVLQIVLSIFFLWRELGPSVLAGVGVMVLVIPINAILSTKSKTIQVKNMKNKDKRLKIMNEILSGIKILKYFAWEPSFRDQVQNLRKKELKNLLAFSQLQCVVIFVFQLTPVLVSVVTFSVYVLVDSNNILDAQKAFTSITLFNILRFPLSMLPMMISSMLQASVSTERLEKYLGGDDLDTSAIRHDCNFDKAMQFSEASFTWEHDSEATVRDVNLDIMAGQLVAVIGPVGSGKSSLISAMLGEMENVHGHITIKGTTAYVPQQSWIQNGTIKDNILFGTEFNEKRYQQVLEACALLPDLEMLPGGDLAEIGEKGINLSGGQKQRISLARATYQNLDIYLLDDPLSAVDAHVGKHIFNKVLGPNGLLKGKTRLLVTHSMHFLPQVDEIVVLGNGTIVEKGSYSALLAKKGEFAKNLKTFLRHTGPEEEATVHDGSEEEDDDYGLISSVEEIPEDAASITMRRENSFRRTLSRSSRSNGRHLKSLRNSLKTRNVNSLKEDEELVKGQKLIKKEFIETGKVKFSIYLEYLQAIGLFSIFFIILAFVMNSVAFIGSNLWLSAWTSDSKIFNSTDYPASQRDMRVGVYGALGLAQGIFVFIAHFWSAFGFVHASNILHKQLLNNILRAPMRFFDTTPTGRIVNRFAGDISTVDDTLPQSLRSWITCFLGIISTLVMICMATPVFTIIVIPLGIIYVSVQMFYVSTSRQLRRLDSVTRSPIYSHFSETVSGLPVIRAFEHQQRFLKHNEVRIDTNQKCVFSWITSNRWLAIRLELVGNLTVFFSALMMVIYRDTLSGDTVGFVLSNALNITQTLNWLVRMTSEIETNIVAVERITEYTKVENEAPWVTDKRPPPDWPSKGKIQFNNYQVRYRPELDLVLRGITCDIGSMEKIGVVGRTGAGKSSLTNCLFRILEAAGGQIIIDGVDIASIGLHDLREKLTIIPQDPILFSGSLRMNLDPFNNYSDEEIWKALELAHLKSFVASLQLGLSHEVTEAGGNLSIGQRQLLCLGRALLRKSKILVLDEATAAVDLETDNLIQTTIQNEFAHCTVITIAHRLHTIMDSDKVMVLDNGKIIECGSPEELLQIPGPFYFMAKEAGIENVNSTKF

Like-named read-outs stand apart in the source and are kept apart here.

In the case of `O=C1OC(c2ccc(O)c(S(=O)(=O)O)c2)(c2ccc(O)c(S(=O)(=O)O)c2)c2c(Br)c(Br)c(Br)c(Br)c21` [Bromosulfophthalein], the Km (commonly the concentration of substrate that gives half-maximal velocity) is 0.14 µM on OATP1B1 [1], 3.4 µM at OATP1B3 [2], 0.3 µM on OATP1B1 [3] and 12 µM on ABCC2. The Vmax on OATP1B3 [4] (cell line ABCC2-OATP1B3, intracellular accumulation of 3H-labeled substrate) is 82.7 ± 4.0 pmol · mg protein^−1 · min^−1. Further, the Km at 5 min at OATP1B3 [4] (human, pH 7.3) worked out at 2.2 µM.
